The source of these data is patent US6498180B1, “Excitatory amino acid receptor modulators” (Eli Lilly and Company, priority 1999, dated 2002).

The structures appear in SMILES notation. pEC50, pKi: −log10 of the molar value.

A short description of one data set: animal model of anxiety. Particulars: in vivo.
Data set [1] has as its target T1, mGluR3 (Homo sapiens, UniProt Q14832). The experiment in a line: [3H] LY341495 binding at mGluR3. Set-up: expressed in transfected cells. The note with it: Example 1: average result from several tests, read-out: Ki, reversal of [3H] LY341495 binding at mGluR3. An excerpt: (D. D. Schoepp, et al., Neuropharmacol., 1996, 35, 1661-1672 and 1997, 36, 1-11).
The target of data set [2] is T1, mGluR3. The experiment in a line: decrease of forskolin-stimulated cAMP in cells expressing mGluR3.
Text: The ability of compounds to function as agonists of glutamate at metabotropic glutamate receptors may be determined by measuring their ability to decrease forskolin-stimulated cAMP in cells expressing mGluR receptors.

T1 sequence (Q14832 23-879): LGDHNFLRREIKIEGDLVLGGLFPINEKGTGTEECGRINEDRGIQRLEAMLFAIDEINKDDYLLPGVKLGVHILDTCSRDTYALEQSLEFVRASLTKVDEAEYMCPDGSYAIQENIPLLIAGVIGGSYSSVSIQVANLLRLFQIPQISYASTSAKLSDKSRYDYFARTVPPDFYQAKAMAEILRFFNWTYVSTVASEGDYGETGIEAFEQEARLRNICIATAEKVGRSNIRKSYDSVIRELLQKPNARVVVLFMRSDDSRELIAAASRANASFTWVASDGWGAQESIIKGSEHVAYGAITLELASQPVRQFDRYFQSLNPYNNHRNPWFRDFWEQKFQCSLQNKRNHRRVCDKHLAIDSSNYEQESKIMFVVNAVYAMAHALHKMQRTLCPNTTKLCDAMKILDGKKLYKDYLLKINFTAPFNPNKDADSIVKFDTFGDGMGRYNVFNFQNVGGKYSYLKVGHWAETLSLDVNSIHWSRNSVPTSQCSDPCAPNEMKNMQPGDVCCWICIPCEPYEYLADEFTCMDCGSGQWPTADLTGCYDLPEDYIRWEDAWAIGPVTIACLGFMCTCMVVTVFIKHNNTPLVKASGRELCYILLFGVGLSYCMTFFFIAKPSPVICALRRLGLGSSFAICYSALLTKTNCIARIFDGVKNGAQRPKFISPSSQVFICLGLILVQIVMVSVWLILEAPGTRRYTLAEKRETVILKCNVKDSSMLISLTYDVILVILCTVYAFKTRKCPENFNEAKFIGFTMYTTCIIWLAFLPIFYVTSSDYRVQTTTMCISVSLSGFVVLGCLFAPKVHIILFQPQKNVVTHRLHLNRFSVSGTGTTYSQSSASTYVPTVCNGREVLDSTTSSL

For the molecule `N[C@H](C(=O)O)[C@H]1[C@@H](CO)[C@@H]1C(=O)O` (racemic) [Example 1, (2SR,1′SR,2′RS,3′RS)-2-(3′-hydroxymethyl-2′-carboxycyclopropyl)glycine], the “potency in an animal model of anxiety” value in the data set “animal model of anxiety” was “highly potent”. Further, the pKi at mGluR3 [1] is 8.10. The molecule also had a pEC50 on mGluR3 [2] of 7.94. `N[C@H](C(=O)O)[C@H]1[C@@H](CS)[C@@H]1C(=O)O` (racemic) [Example 3, (2SR,1′RS,2′RS,3′RS)-2-[3′-mercaptomethyl-2′-carboxycyclopropyl]glycine]: the melting point was 200 to 202 °C. Consider `N[C@H](C(=O)O)[C@H]1[C@@H](CSc2ccccc2)[C@@H]1C(=O)O` (racemic) [Example 8, (2SR,1′RS,2′RS,3′RS)-2-[3′-(phenylthiomethyl)-2′-carboxycyclopropyl]glycine], for which the melting point was 201 °C.

In the case of `N[C@H](C(=O)O)[C@H]1[C@@H](CO)[C@@H]1C(=O)O` (single isomer, unassigned) [Example 22], the pKi on mGluR3 [1] was 8.29.
